The values that follow come from patent publication US12617807B2, “Long lasting opioid reversal using hydrogen peroxide-induced release in blood” (University of Cincinnati, priority 2021, dated 2026).

≈ marks a conversion by molar mass, not a printed value.

In data set [1] the test system is opioid-induced respiratory failure and death. Put plainly: rescue of mice from lethal dose of morphine (survival). The format is in vivo. Here is the method: Experiments were conducted to determine if NPD-2 can rescue a mouse from opioid-induced respiratory failure and death. Mice were administered a lethal dose of morphine by injection intraperitoneally (IP, 400 mg/kg). […] A survival percentage was calculated and graphed.

Data set [2] has as its system 4-NHE (marker of ROS damage). Put plainly: ROS changes in blood of mice, ELISA for 4-NHE. The following applies: for effect on ROS levels: injected together with morphine. An excerpt:
This was accomplished using an ELISA assay for 4-NHE that is a marker of ROS damage. See FIG. 9A for an illustration of the process. After a short period, serum was collected and quantification of 4-NHE against spiked blood standards was accomplished using an appropriate antibody.
For orientation: An ELISA detects its analyte on a solid surface through an enzyme-linked reagent.

Data set [3] can be described thus: naloxone in serum of injected mice by LCMS. The format is in vivo. Here is the method:
After 30 minutes the mice were sacrificed. Blood was harvested and allowed to coagulate. Serum was harvested. A small amount of naloxone-D5 was spiked in, 9 vol of MeOH were added, and cooled for 30 min. After centrifugation the supernatant from each sample was dried and submitted to LCMS. […] FIG. 7 is a graph showing the results of the experiment.
Another experiment was conducted following the methodology of Example 1, except the mice were sacrificed at 2 hours instead of 30 minutes. FIG. 8 is a graph showing the results of the experiment.

The test system of the next data set is renarcotization. Briefly: simulated renarcotization, supplemental opioid dose after rescue. To be noted: for survival (rescue rate) after initial opioid overdose: initial overdose 400 mg/kg.
The nature of data set [4]: max solubility in 1×PBS, 20% PEG400. To be noted: 1×PBS with 20% PEG400, aqueous with cosolvent or surfactant or cyclodextrin. The data set is classed as physicochemical.
For data set [5] the following is noted: in vivo; cited from earlier work.
Setting [6] is: 2 mg/kg IP 15 min after morphine 400 mg/kg IP.
Where [7] appears, read: 4 mg/kg IP 15 min after morphine 400 mg/kg IP.
Setting [8] is: 7 mg/kg IP 15 min after morphine 400 mg/kg IP.
Setting [9] is: 15 mg/kg IP 15 min after morphine 400 mg/kg IP.
The mark [10] stands for this setting: 6 mg/kg IP 15 min after morphine 400 mg/kg IP.

Description for renarcotization: Experiments were conducted to examine the effect of the prodrug of the present invention in a simulated renarcotization situation.

Regarding `CN1CC[C@]23c4c5ccc(O)c4O[C@H]2[C@@H](O)C=C[C@H]3[C@H]1C5` [morphine, reference compound], in data set [1] (morphine 400 mg/kg IP alone), the “# dead” value is given as 2, the Survival percent worked out at 0% and the Survival rate turned out to be 0. For the same compound, the “increase of ROS (4-NHE)” value in data set [2] (mouse serum, compound alone) is “more than 10 fold”.

A word on the solubility: it is how much of the substance goes into solution per volume. As to `C=CCN1CCC23c4c5ccc(OCc6ccc(B(O)O)cc6)c4O[C@@H]2C(=O)CC[C@@]3(O)C1C5` (some centres unmarked) [PS-NPD-2], the “# dead” value in data set [1] (setting [6]) was determined as 8; in data set [1] (setting [7]), 1; in data set [1] (setting [8]), 4; in data set [1] (setting [9]) it was 1. For the same compound, the Survival percent is 0% in data set [1] (setting [6]), 0% in data set [1] (setting [7]), 0% in data set [1] (setting [8]) and 87.5% in data set [1] (setting [9]). Moreover, the Survival rate is given as 0 in data set [1] (setting [6]), 0 in data set [1] (setting [7]), 0 in data set [1] (setting [8]) and 0.875 in data set [1] (setting [9]). Also, the half-life result in data set [3] (inferred from 2 hour naloxone level in mice) was “potentially longer half-life”. The “naloxone concentration in blood/serum” value in data set [3] (mice, 30 minutes after injection, LCMS) is on record as “higher concentrations of naloxone”. For the same compound, the “naloxone in blood compared to naloxone” value in data set [3] (mice, 2 hours after injection, LCMS) is recorded as “more naloxone in mice blood compared to naloxone”. Further, the “survival (rescue rate) after initial opioid overdose” value with renarcotization (15 mg/kg) is given as 80%. Moreover, the “number of surviving animals after supplemental opioid” value with renarcotization (prodrug 15 mg/kg vs naloxone 6 mg/kg, supplemental opioid dose 25 mg/kg, N=8 each group) is given as “higher number of surviving animals than naloxone”. Besides, the “effect on ROS levels” value in data set [2] was “reduces the ROS levels back to saline treated levels”. The solubility in data set [4] is about 50 mg/mL (≈ 108 mM).

Turning to `C=CCN1CC[C@]23c4c5ccc(O)c4O[C@H]2C(=O)CC[C@@]3(O)[C@H]1C5` [naloxone, reference compound], in data set [1] (setting [10]), the “# dead” value is listed as 1, the Survival percent is reported as 75% and the Survival rate stood at 0.75. The “survival (rescue rate) after initial opioid overdose” value in the data set on renarcotization (6 mg/kg) is recorded as 80%. For the same compound, in data set [5], the metabolic stability result was “metabolically instable”. Also, in data set [2], the “effect on ROS levels” value was “reduces the ROS levels back to saline treated levels”.
